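Five compound concentrations were applied to cells in 96-well plates for 48 hours; endpoints were derived by simple linear interpolation of the resulting dose-response curve. TGI: concentration producing complete growth inhibition.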
Key:
Assay in all cases: DTP human tumour cell line panel, 48 h
MALME-3M melanoma = test system: MALME-3M melanoma
SK-MEL-5 melanoma = test system: SK-MEL-5 melanoma
OVCAR-8 ovarian = test system: OVCAR-8 ovarian
HOP-92 NSCLC = test system: HOP-92 NSCLC
NCI/ADR-RES ovarian = test system: NCI/ADR-RES ovarian
A498 renal = test system: A498 renal
SF-539 CNS = test system: SF-539 CNS
MOLT-4 leukemia = test system: MOLT-4 leukemia
IGROV1 ovarian = test system: IGROV1 ovarian
SNB-19 CNS = test system: SNB-19 CNS
OVCAR-5 ovarian = test system: OVCAR-5 ovarian
NCI-H226 lung = test system: NCI-H226 lung
A549 NSCLC = test system: A549 NSCLC
U251 CNS = test system: U251 CNS
SF-295 CNS = test system: SF-295 CNS
MCF7 breast = test system: MCF7 breast
HL-60(TB) leukemia = test system: HL-60(TB) leukemia
OVCAR-3 ovarian = test system: OVCAR-3 ovarian
OVCAR-4 ovarian = test system: OVCAR-4 ovarian
SR leukemia = test system: SR leukemia
NCI-H460 lung = test system: NCI-H460 lung
K-562 leukemia = test system: K-562 leukemia
SK-MEL-28 melanoma = test system: SK-MEL-28 melanoma
SW-620 colon = test system: SW-620 colon
NCI-H23 lung = test system: NCI-H23 lung
NCI-H522 lung = test system: NCI-H522 lung
MDA-MB-231 breast = test system: MDA-MB-231 breast
SK-OV-3 ovarian = test system: SK-OV-3 ovarian
UACC-62 melanoma = test system: UACC-62 melanoma
HCT-15 colon = test system: HCT-15 colon
KM12 colon = test system: KM12 colon
COLO 205 colon = test system: COLO 205 colon
RPMI-8226 leukemia = test system: RPMI-8226 leukemia
SN12C renal = test system: SN12C renal
CAKI-1 renal = test system: CAKI-1 renal
SNB-75 CNS = test system: SNB-75 CNS
LOX IMVI melanoma = test system: LOX IMVI melanoma
786-0 renal = test system: 786-0 renal
MDA-N = test system: MDA-N
UACC-257 melanoma = test system: UACC-257 melanoma
M14 melanoma = test system: M14 melanoma
PC-3 prostate = test system: PC-3 prostate
BT-549 breast = test system: BT-549 breast
MDA-MB-435 = test system: MDA-MB-435
UO-31 renal = test system: UO-31 renal
RXF 393 renal = test system: RXF 393 renal
HCT-116 colon = test system: HCT-116 colon
SK-MEL-2 melanoma = test system: SK-MEL-2 melanoma
TK-10 renal = test system: TK-10 renal
HCC-2998 colon = test system: HCC-2998 colon
CCRF-CEM leukemia = test system: CCRF-CEM leukemia
EKVX NSCLC = test system: EKVX NSCLC
DU-145 prostate = test system: DU-145 prostate
ACHN renal = test system: ACHN renal
SF-268 CNS = test system: SF-268 CNS
HS 578T breast = test system: HS 578T breast
T-47D breast = test system: T-47D breast
HT29 colon = test system: HT29 colon
HOP-62 NSCLC = test system: HOP-62 NSCLC

## C=C1c2nc3ccccc3n2C=C(c2ccc(Cl)cc2)N1c1ccccc1
MALME-3M melanoma
  TGI: 27 µM
SK-MEL-5 melanoma
  TGI: > 100 µM
OVCAR-8 ovarian
  TGI: 23.7 µM
HOP-92 NSCLC
  TGI: > 100 µM
NCI/ADR-RES ovarian
  TGI: 29.8 µM
A498 renal
  TGI: > 100 µM
SF-539 CNS
  TGI: 25.9 µM
MOLT-4 leukemia
  TGI: > 100 µM
IGROV1 ovarian
  TGI: 22.1 µM
SNB-19 CNS
  TGI: 19.6 µM
OVCAR-5 ovarian
  TGI: > 100 µM
NCI-H226 lung
  TGI: 3.72 µM
A549 NSCLC
  TGI: 27.1 µM
U251 CNS
  TGI: 44.8 µM
SF-295 CNS
  TGI: 24 µM
MCF7 breast
  TGI: 25.7 µM
HL-60(TB) leukemia
  TGI: > 100 µM
OVCAR-3 ovarian
  TGI: 38.5 µM
OVCAR-4 ovarian
  TGI: 29.9 µM
SR leukemia
  TGI: > 100 µM
NCI-H460 lung
  TGI: 24.9 µM
K-562 leukemia
  TGI: > 100 µM
SK-MEL-28 melanoma
  TGI: 24 µM
SW-620 colon
  TGI: > 100 µM
NCI-H23 lung
  TGI: 23.9 µM
NCI-H522 lung
  TGI: 18.5 µM
MDA-MB-231 breast
  TGI: > 100 µM
SK-OV-3 ovarian
  TGI: 34.7 µM
UACC-62 melanoma
  TGI: 66.2 µM
HCT-15 colon
  TGI: 24.5 µM
KM12 colon
  TGI: 24.7 µM
COLO 205 colon
  TGI: > 100 µM
RPMI-8226 leukemia
  TGI: > 100 µM
SN12C renal
  TGI: > 100 µM
CAKI-1 renal
  TGI: 39.4 µM
SNB-75 CNS
  TGI: 15.9 µM
LOX IMVI melanoma
  TGI: > 100 µM
786-0 renal
  TGI: 26 µM
MDA-N
  TGI: > 100 µM
UACC-257 melanoma
  TGI: 63 µM
M14 melanoma
  TGI: 36.4 µM
PC-3 prostate
  TGI: > 100 µM
BT-549 breast
  TGI: 18.8 µM
MDA-MB-435
  TGI: > 100 µM
UO-31 renal
  TGI: 32.9 µM
RXF 393 renal
  TGI: 49.5 µM
HCT-116 colon
  TGI: 33.7 µM
SK-MEL-2 melanoma
  TGI: > 100 µM
TK-10 renal
  TGI: 24.8 µM
HCC-2998 colon
  TGI: 26 µM
CCRF-CEM leukemia
  TGI: > 100 µM
EKVX NSCLC
  TGI: 45.2 µM
DU-145 prostate
  TGI: > 100 µM
ACHN renal
  TGI: 24.8 µM

## O=C1C[C@@H](c2ccccc2)NCCCCN(O)CCCN1
MALME-3M melanoma
  TGI: > 100 µM
SF-268 CNS
  TGI: > 100 µM
SK-MEL-5 melanoma
  TGI: > 100 µM
OVCAR-8 ovarian
  TGI: > 100 µM
HOP-92 NSCLC
  TGI: > 100 µM
NCI/ADR-RES ovarian
  TGI: > 100 µM
A498 renal
  TGI: > 100 µM
SF-539 CNS
  TGI: > 100 µM
MOLT-4 leukemia
  TGI: > 100 µM
IGROV1 ovarian
  TGI: > 100 µM
SNB-19 CNS
  TGI: > 100 µM
OVCAR-5 ovarian
  TGI: > 100 µM
NCI-H226 lung
  TGI: > 100 µM
A549 NSCLC
  TGI: > 100 µM
U251 CNS
  TGI: > 100 µM
SF-295 CNS
  TGI: > 100 µM
MCF7 breast
  TGI: > 100 µM
HL-60(TB) leukemia
  TGI: > 100 µM
OVCAR-3 ovarian
  TGI: > 100 µM
OVCAR-4 ovarian
  TGI: > 100 µM
SK-MEL-28 melanoma
  TGI: > 100 µM
SW-620 colon
  TGI: > 100 µM
NCI-H23 lung
  TGI: > 100 µM
NCI-H522 lung
  TGI: > 100 µM
MDA-MB-231 breast
  TGI: > 100 µM
HS 578T breast
  TGI: > 100 µM
T-47D breast
  TGI: > 100 µM
SK-OV-3 ovarian
  TGI: > 100 µM
UACC-62 melanoma
  TGI: > 100 µM
HCT-15 colon
  TGI: > 100 µM
KM12 colon
  TGI: > 100 µM
COLO 205 colon
  TGI: > 100 µM
RPMI-8226 leukemia
  TGI: > 100 µM
SN12C renal
  TGI: > 100 µM
CAKI-1 renal
  TGI: > 100 µM
SNB-75 CNS
  TGI: > 100 µM
LOX IMVI melanoma
  TGI: > 100 µM
HT29 colon
  TGI: > 100 µM
786-0 renal
  TGI: > 100 µM
MDA-N
  TGI: > 100 µM
UACC-257 melanoma
  TGI: > 100 µM
M14 melanoma
  TGI: > 100 µM
PC-3 prostate
  TGI: > 100 µM
BT-549 breast
  TGI: > 100 µM
MDA-MB-435
  TGI: > 100 µM
UO-31 renal
  TGI: > 100 µM
RXF 393 renal
  TGI: > 100 µM
HCT-116 colon
  TGI: > 100 µM
SK-MEL-2 melanoma
  TGI: > 100 µM
TK-10 renal
  TGI: > 100 µM
HCC-2998 colon
  TGI: > 100 µM
CCRF-CEM leukemia
  TGI: > 100 µM
EKVX NSCLC
  TGI: > 100 µM
DU-145 prostate
  TGI: > 100 µM
ACHN renal
  TGI: > 100 µM
HOP-62 NSCLC
  TGI: > 100 µM

From PubChem BioAssay (NCI)
